From ChEMBL document CHEMBL4627385, “Cytotoxic Monoterpenoid Indole Alkaloids from Tabernaemontana corymbosa as Potent Autophagy Inhibitors by the Attenuation of Lysosomal Acidification” (J Nat Prod, 2020)
pEC50, pIC50: −log10 of the molar value. Active and inactive are the calls of the source. The calls are words filed in the database; no cut-off is given here.

What was measured:
Assay type in all cases: functional, cell-based
HeLa [1] = test: Inhibition of lysosomal acidification in human HeLa cells incubated for 3 hrs by LysoTracker Red DND-99 staining based array scan method
HL-60 = test: Cytotoxicity against human HL60 cells assessed as reduction in cell viability incubated for 48hrs by MTT assay; details: HL-60, 48 h
MCF7 = test: Cytotoxicity against human MCF7 cells assessed as reduction in cell viability incubated for 48hrs by MTT assay; details: MCF7, 48 h
A549 = test: Cytotoxicity against human A549 cells assessed as reduction in cell viability incubated for 48hrs by MTT assay; details: A549, 48 h
SMMC-7721 = test: Cytotoxicity against human SMMC7721 cells assessed as reduction in cell viability incubated for 48hrs by MTT assay; details: SMMC-7721, 48 h
SW480 = test: Cytotoxicity against human SW480 cells assessed as reduction in cell viability incubated for 48hrs by MTT assay; details: SW480, 48 h
HeLa [2] = test: Inhibition of autophagic flux in human HeLa cells assessed as increase in LC3-2 to LC3-1 ratio at 20 uM by Western blot analysis
HeLa [3] = test: Inhibition of autophagic flux in human HeLa cells assessed as increase in LC3-2 to LC3-1 ratio at 20 uM in presence of Bafilomycin A1 by Western blot analysis
HeLa [4] = test: Inhibition of autophagic flux in human HeLa cells assessed as p62 protein expression at 20 uM by Western blot analysis
HeLa [5] = test: Inhibition of autophagic flux in human HeLa cells harboring GFP-LC3 assessed as increase in LC3 dot accumulation incubated for 12 hrs by confocal microscopic method
HeLa [6] = test: Inhibition of autophagic flux in human HeLa cells assessed as p62 protein expression at 50 nM by Western blot analysis
HeLa [7] = test: Inhibition of autophagic flux in human HeLa cells assessed as inhibition of lysosomal acidification at 50 nM by Western blot analysis
HeLa [8] = test: Inhibition of autophagic flux in human HeLa cells assessed as increase in LC3-2 accumulation at 50 nM by Western blot analysis
HeLa [9] = test: Inhibition of autophagic flux in human HeLa cells assessed as increase in LC3-2 to LC3-1 ratio at 50 nM by Western blot analysis

Row | Compound | pEC50 (HeLa [1]) | pIC50 (HL-60) | pIC50 (MCF7) | pIC50 (A549) | pIC50 (SMMC-7721) | pIC50 (SW480) | also measured
1 | C/C=C1/CN2COC[C@]3(C(=O)OC)[C@@H]1C[C@@H](c1c(OC)ccc4c5c([nH]c14)[C@]1(C(=O)OC)C[C@H]4C[C@H](CC)[C@@H]1N(CC5)C4=O)c1[nH]c4ccccc4c1C[C@H]23 | < 4.40 | < 5.00 | < 5.00 | < 5.00 | < 5.00 | < 5.00 | –
2 | CC[C@H]1C[C@@H]2CN3CCc4c([nH]c5cc(OC)c([C@@H]6C[C@H]7C(C(=O)OC)[C@H](Cc8c6[nH]c6ccccc86)N(C)C[C@H]7CC)cc45)[C@](C(=O)OC)(C2)[C@H]13 (stereo partly drawn) | 4.80 | – | – | – | – | – | inhibition (HeLa [1]): Dose-dependent effect
3 | CCN(CC)CCCC(C)Nc1ccnc2cc(Cl)ccc12 (stereo not drawn) [CHLOROQUINE] | 4.71 | – | – | – | – | – | –
4 | COC(=O)C[C@@H]1[C@@H]2C[C@H]([C@H](C)O)[C@@H]3N1CCc1c([nH]c4ccc(OC)cc14)[C@]3(C(=O)OC)C2 | < 4.40 | < 5.00 | < 5.00 | < 5.00 | < 5.00 | < 5.00 | –
5 | C/C=C1/CN(C)[C@H]2Cc3c([nH]c4ccccc34)[C@H](c3cc4c(cc3OC)N=C3[C@]5(C(=O)OC)C[C@]6(C(=O)OC)C[C@H](CC)[C@@H]5N(CC[C@@]34O)C6)C[C@H]1[C@]2(CO)C(=O)OC | 4.59 | – | – | – | – | – | inhibition (HeLa [1]): Dose-dependent effect
6 | CC[C@H]1C[C@H]2CN3CCc4c([nH]c5cc(OC)c([C@@H]6C[C@H]7[C@@]8(C(=O)OC)CO[C@H](N(C)[C@H]8Cc8c6[nH]c6ccccc86)[C@@]76O[C@H]6C)cc45)[C@](C(=O)OC)(C2)[C@H]13 | 4.69 | > 5.00 | > 5.00 | > 5.00 | > 5.00 | < 5.00 | inhibition (HeLa [1]): Dose-dependent effect; inhibition (HeLa [2]): Active; inhibition (HeLa [3]): Active; inhibition (HeLa [4]): Active; inhibition (HeLa [5]): Active
7 | CC[C@H]1C[C@H]2C[C@@]3(C(=O)OC)c4[nH]c5cc(OC)ccc5c4CC[N@@](C2CC(C)=O)[C@@H]13 (stereo partly drawn) | < 4.40 | – | – | – | – | – | –
8 | CC[C@H]1C[C@]2(C(=O)OC)CN3CC[C@@]4(O)C(=Nc5cc(OC)c([C@@H]6C[C@H]7[C@@]8(C(=O)OC)CO[C@H](N(C)[C@H]8Cc8c6[nH]c6ccccc86)[C@@]76O[C@H]6C)cc54)[C@](C(=O)OC)(C2)[C@H]13 | 4.89 | – | – | – | – | – | inhibition (HeLa [1]): Dose-dependent effect; inhibition (HeLa [2]): Active; inhibition (HeLa [3]): Active; inhibition (HeLa [4]): Active; inhibition (HeLa [5]): Active
9 | COC(=O)[C@@]12C[C@@H]3C[C@H]([C@H](C)O)C1[N@@](CCc1c2[nH]c2ccccc12)C3 | < 4.40 | – | – | – | – | – | –
10 | C/C=C1/CN(C)[C@H]2Cc3c([nH]c4ccccc34)[C@H](c3c(OC)ccc4c3N[C@]3(OC)[C@]5(C(=O)OC)C[C@H]6C[C@H](CC)[C@@H]5N5CC[C@@]43O[C@H]65)C[C@H]1[C@]2(CO)C(=O)OC | < 4.40 | < 5.00 | < 5.00 | < 5.00 | < 5.00 | < 5.00 | –
11 | CC[C@H]1C[C@H]2C[N@]3CCc4c([nH]c5ccc(OC)cc45)[C@](C(=O)OC)(C2)[C@H]13 | < 4.40 | – | – | – | – | – | –
12 | COC(=O)[C@@]12C[C@@H]3CC([C@H](C)O)[C@@H]1[N@@](CC[C@]1(O)C2=Nc2ccccc21)C3 (stereo partly drawn) | < 4.40 | – | – | – | – | – | –
13 | C/C=C1/CN2COC[C@@]3(C(=O)OC)[C@@H]1C[C@H](c1cc4c5c([nH]c4cc1OC)[C@]1(C(=O)OC)C[C@@H]4C[C@H](CC)[C@@H]1N(CC5)C4)c1[nH]c4ccccc4c1C[C@H]23 | 4.53 | 5.49 | 5.40 | 5.07 | 5.33 | 5.46 | inhibition (HeLa [1]): Dose-dependent effect
14 | COC(=O)C[C@@H]1[C@@H]2C[C@H]([C@H](C)O)[C@@H]3N1CCc1c([nH]c4cc(OC)ccc14)[C@]3(C(=O)OC)C2 | < 4.40 | < 5.00 | < 5.00 | < 5.00 | < 5.00 | < 5.00 | –
15 | CC[C@H]1C[C@H]2CN3CC[C@@]4(O)C(=Nc5cc(OC)ccc54)[C@](C(=O)OC)(C2)[C@H]13 | < 4.40 | < 5.00 | < 5.00 | < 5.00 | < 5.00 | 5.12 | –
16 | CC[C@H]1C[C@@H]2CN3CCc4c([nH]c5cc(OC)ccc45)[C@](C(=O)OC)(C2)[C@H]13 [ISOVOACANGINE] | < 4.40 | – | – | – | – | – | –
17 | CC[C@H]1C[C@H]2C[C@@]3(C(=O)OC)c4[nH]c5ccccc5c4CC[N@@](C2CC(C)=O)[C@@H]13 (stereo partly drawn) | < 4.40 | – | – | – | – | – | –
18 | COC(=O)[C@@]12C[C@@H]3CC([C@H](C)O)[C@@H]1[N@@](CC[C@]1(O)C2=Nc2ccc(OC)cc21)C3 (stereo partly drawn) | < 4.40 | – | – | – | – | – | –
19 | COC(=O)[C@@]12C[C@@H]3C[C@@H]([C@H](C)O)C1[N@@](CCc1c2[nH]c2ccccc12)C3 | < 4.40 | – | – | – | – | – | –
20 | C/C=C1/CN2COC[C@]3(C(=O)OC)[C@@H]1C[C@@H](c1c(OC)ccc4c1N=C1[C@]5(C(=O)OC)C[C@@H]6C[C@H](CC)[C@@H]5N(CC[C@]14O)C6)c1[nH]c4ccccc4c1C[C@H]23 | < 4.40 | – | – | – | – | – | –
21 | C/C=C1/CN2COC[C@@]3(C(=O)OC)[C@@H]1C[C@@H](c1c(OC)ccc4c5c([nH]c14)[C@]1(C(=O)OC)C[C@@H]4C[C@H](CC)[C@@H]1N(CC5)C4)c1[nH]c4ccccc4c1C[C@H]23 | < 4.40 | – | – | – | – | – | –
22 | C/C=C1/CN(C)[C@H]2Cc3c([nH]c4ccccc34)[C@H](c3c(OC)ccc4c5c([nH]c34)[C@]3(C(=O)OC)C[C@H]4C[C@H](CC)[C@@H]3N(C4)C[C@H]5OC)C[C@H]1[C@]2(CO)C(=O)OC | < 4.40 | < 5.00 | < 5.00 | < 5.00 | < 5.00 | < 5.00 | –
23 | CO/C1=C\C(C)=C\[C@@H](C)[C@@H](O)[C@@H](C)C/C(C)=C/C=C/[C@H](OC)[C@@H]([C@@H](C)[C@@H](O)[C@H](C)[C@@]2(O)C[C@@H](O)[C@H](C)[C@@H](C(C)C)O2)OC1=O | – | – | – | – | – | – | inhibition (HeLa [6]): Active; inhibition (HeLa [7]): Active; inhibition (HeLa [8]): Active; inhibition (HeLa [9]): Active
24 | C/C=C1/CN(C)[C@H]2Cc3c([nH]c4ccccc34)[C@H](OC)C[C@H]1[C@]2(CO)C(=O)OC | < 4.40 | < 5.00 | < 5.00 | < 5.00 | < 5.00 | < 5.00 | –
25 | CC[C@H]1C[C@@H]2CN3CCc4c([nH]c5ccccc45)[C@](C(=O)OC)(C2)[C@H]13 [CORONARIDINE] | < 4.40 | – | – | – | – | – | –
26 | COC(=O)[C@@]12CC3C[C@H]([C@H](C)O)[C@@H]1N(C3)Cn1c2c(C=O)c2ccccc21 | < 4.40 | < 5.00 | < 5.00 | < 5.00 | < 5.00 | < 5.00 | –
27 | C/C=C1/CN(C)[C@H]2Cc3c([nH]c4ccccc34)[C@H](c3c(OC)ccc4c3N=C3[C@]5(C(=O)OC)C[C@@H]6C[C@H](CC)[C@@H]5N(CC[C@]34O)C6)C[C@H]1[C@]2(CO)C(=O)OC | < 4.40 | – | – | – | – | – | –
